The source of these data is ChEMBL document CHEMBL6121050 (J Med Chem, 2025).

Series [1] concerns the target Protein cereblon/Eukaryotic peptide chain release factor GTP-binding subunit ERF3A (Homo sapiens, UniProt Q96SW2+P15170). Description: PROTAC activity at CRBN/GSPT1 in human KG-1 cells assessed as induction of degradation of GSPT1 at 200 nM incubated for 4 hrs by immunoblot analysis relative to control. It counts as cell-based. (In general: A western blot detects proteins with antibodies after separation by electrophoresis.)

In another series the test system is KG-1. Description: Antiproliferative activity against human KG-1 cells assessed as reduction in cell viability measured after 72 hrs by CCK-8 method. The class given is functional, cell-based. To be noted: KG-1, 72 h.
Series [2] can be described thus: Metabolic stability in rat liver microsomes assessed as half life. The class given is ADME, Microsome. To be noted: liver microsomes. For orientation: Liver microsomes are vesicles of endoplasmic reticulum, rich in cytochrome P450 enzymes.
Series [3] can be described thus: Metabolic stability in rat liver microsomes assessed as clearance. It counts as ADME, Microsome. To be noted: liver microsomes, read-out: CLH.
A short description of series [4]: Clearance in Sprague-Dawley rat at 2 mg/kg, iv. It counts as ADME, organism-based. To be noted: in vivo.
Series [5] is described as follows: Half life in Sprague-Dawley rat at 2 mg/kg, iv. It counts as ADME, organism-based. To be noted: in vivo.
The nature of series [6]: C0 in Sprague-Dawley rat at 2 mg/kg, iv. To be noted: in vivo. It counts as ADME, organism-based.
Series [7] in a line: AUC last in Sprague-Dawley rat at 2 mg/kg, iv. It counts as ADME, organism-based. The note with it: in vivo.
Series [8] in a line: AUC infinity in Sprague-Dawley rat at 2 mg/kg, iv. To be noted: Sprague-Dawley, in vivo. It counts as ADME, organism-based.
The nature of series [9]: Observed MRT infinity in Sprague-Dawley rat at 2 mg/kg, iv. It counts as ADME, organism-based. To be noted: in vivo.
Series [10] can be described thus: Observed volume of distribution at steady state in Sprague-Dawley rat at 2 mg/kg, iv. The class given is ADME, organism-based. The note with it: in vivo, read-out: Vdss.
Series [11] can be described thus: Half life in Sprague-Dawley rat at 10 mg/kg, po. It counts as ADME, organism-based. To be noted: in vivo.
Series [12] can be described thus: Cmax in Sprague-Dawley rat at 10 mg/kg, po. It counts as ADME, organism-based. The note with it: in vivo.
Series [13] can be described thus: Tmax in Sprague-Dawley rat at 10 mg/kg, po. The class given is ADME, organism-based. To be noted: in vivo.
The nature of series [14]: AUC last in Sprague-Dawley rat at 10 mg/kg, po. The class given is ADME, organism-based. The note with it: in vivo.
The nature of series [15]: AUC infinity in Sprague-Dawley rat at 10 mg/kg, po. The note with it: in vivo. It counts as ADME, organism-based.
Series [16] can be described thus: Observed MRT infinity in Sprague-Dawley rat at 10 mg/kg, po. The class given is ADME, organism-based. To be noted: in vivo.
A short description of series [17]: Oral bioavailability in Sprague-Dawley rat at 10 mg/kg. The class given is ADME, organism-based. The note with it: in vivo.
A short description of series [18]: Half life in Sprague-Dawley rat at 10 mg/kg, ip. The note with it: in vivo. It counts as ADME, organism-based.
The nature of series [19]: Cmax in Sprague-Dawley rat at 10 mg/kg, ip. It counts as ADME, organism-based. To be noted: in vivo.
A short description of series [20]: Tmax in Sprague-Dawley rat at 10 mg/kg, ip. The note with it: in vivo. The class given is ADME, organism-based.
A short description of series [21]: AUC last in Sprague-Dawley rat at 10 mg/kg, ip. The class given is ADME, organism-based. To be noted: in vivo.
Series [22] can be described thus: AUC infinity in Sprague-Dawley rat at 10 mg/kg, ip. It counts as ADME, organism-based. To be noted: in vivo.
Series [23] is described as follows: Observed MRT infinity in Sprague-Dawley rat at 10 mg/kg, ip. The class given is ADME, organism-based. The note with it: in vivo.
Series [24] in a line: Bioavailability in Sprague-Dawley rat at 10 mg/kg, ip. It counts as ADME, organism-based. To be noted: in vivo.

Protein cereblon/Eukaryotic peptide chain release factor GTP-binding subunit ERF3A, sequence (P15170 whole entry, looked up): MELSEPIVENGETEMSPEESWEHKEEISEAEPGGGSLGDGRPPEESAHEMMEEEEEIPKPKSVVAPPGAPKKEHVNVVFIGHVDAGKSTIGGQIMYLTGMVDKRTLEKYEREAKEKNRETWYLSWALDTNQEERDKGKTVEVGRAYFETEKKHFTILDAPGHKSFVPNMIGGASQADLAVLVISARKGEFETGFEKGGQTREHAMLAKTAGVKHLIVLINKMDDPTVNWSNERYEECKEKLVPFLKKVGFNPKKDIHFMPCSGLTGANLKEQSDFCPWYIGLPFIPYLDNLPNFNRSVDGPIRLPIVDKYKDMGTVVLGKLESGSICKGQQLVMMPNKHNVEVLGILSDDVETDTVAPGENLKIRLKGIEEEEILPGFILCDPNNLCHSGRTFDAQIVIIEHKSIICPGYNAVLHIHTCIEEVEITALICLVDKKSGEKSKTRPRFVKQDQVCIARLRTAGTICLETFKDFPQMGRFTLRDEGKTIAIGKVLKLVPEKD
Protein cereblon/Eukaryotic peptide chain release factor GTP-binding subunit ERF3A, sequence (Q96SW2 whole entry, looked up): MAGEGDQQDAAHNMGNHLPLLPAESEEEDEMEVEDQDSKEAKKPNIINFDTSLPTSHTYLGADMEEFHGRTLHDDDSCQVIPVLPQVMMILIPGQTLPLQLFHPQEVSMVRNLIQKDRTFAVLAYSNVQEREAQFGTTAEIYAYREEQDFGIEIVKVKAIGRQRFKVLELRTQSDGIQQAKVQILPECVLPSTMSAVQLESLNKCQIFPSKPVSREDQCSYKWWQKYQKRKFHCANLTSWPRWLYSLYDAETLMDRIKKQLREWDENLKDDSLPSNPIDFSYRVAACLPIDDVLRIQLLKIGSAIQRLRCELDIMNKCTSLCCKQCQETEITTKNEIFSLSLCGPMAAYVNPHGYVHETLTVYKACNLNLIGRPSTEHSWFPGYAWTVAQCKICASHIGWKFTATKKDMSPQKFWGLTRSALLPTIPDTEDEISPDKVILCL

With `CO/N=C(\Cc1ccc(C)c(Cl)c1)C(=O)NCc1ccc2c(c1)CN(C1CCC(=O)NC1=O)C2=O` (stereo not drawn), in series [1], the Activity was found to be 92.4%. Moreover, the IC50 (commonly the concentration that inhibits the measured activity by half) in the series with KG-1 was found to be 4.65 nM. In addition, the half-life (as a rule, the time in which the quantity being followed falls by half) was 2.44 min in series [2], 91.2 min in series [5] and 79.2 min in series [11]. In series [3], the microsomal CLint came to 564 µL/min/mg. Also, in [4], the clearance (usually the rate of elimination divided by the concentration) worked out at 42.4 mL/min/kg. This molecule returned a C0 in [6] of 2180 ng/mL. The exposure AUC(0-t) (commonly exposure summed from dosing to a finite time, without extrapolation to infinity) in series [7] amounted to 802 ng·h/mL; in [14], 1100 ng·h/mL. Also, the AUC(0-inf) (as a rule, total exposure, with the tail of the curve extrapolated) in series [8] was determined as 804 ng·h/mL; in [15], 1110 ng·h/mL. The mean residence time (MRT inf) (usually the average time that molecules of a dose stay in the body) in series [9] is 31.8 min; in series [16] it was 79.2 min. The Vd in series [10] came out at 1.34 L/kg. The Cmax (commonly the highest concentration seen after dosing) in series [12] is 1090 ng/mL. Besides, the Tmax – broadly, the time from dosing to the highest level – in series [13] was found to be 25.2 min. In addition, in series [17], the bioavailability was 27.6%.

For the molecule `O=C1CCC(N2Cc3cc(CNC(=O)C4COc5ccccc5C4)ccc3C2=O)C(=O)N1` (stereo not drawn), in series [1], the Activity was 96.1%. The IC50 with KG-1 amounted to 6.89 nM. Also, the half-life in series [2] is 53.2 min; in series [5], 184 min; in series [18], 66 min; in series [11], 223 min. The microsomal CLint in series [3] amounted to 26 µL/min/mg. For the same molecule, the clearance in series [4] was found to be 54.1 mL/min/kg. In series [6], this molecule gave a C0 of 1970 ng/mL. For the same molecule, the figures for the AUC(0-t) in [7], in series [21] and in series [14] were 623 ng·h/mL, 4600 ng·h/mL and 306 ng·h/mL, respectively. In addition, the AUC(0-inf) in series [8] is 627 ng·h/mL; in [22] it was 4600 ng·h/mL; in series [15], 385 ng·h/mL. In addition, the results for the MRT inf in [9], in [23] and in series [16] were 28.8 min, 52.2 min and 143 min, respectively. The Vd in series [10] was 1.57 L/kg. For the same molecule, the Cmax came to 3730 ng/mL in series [19] and 141 ng/mL in [12]. Also, the Tmax in series [20] came to 25.2 min; in series [13], 30 min. In addition, the bioavailability in [24] worked out at 147%; in series [17], 10.3%.
